From patent publication US20110118202A1, “Molecules which Bind to the Dimerization Initiation Site (DIS) of HIV RNA, Their Synthesis and Their Applications as Drugs” (priority 2006, published 2011)
Entries after “also recorded” stand apart in the source; their conditions may differ.

Tests used:
[1] = tested on: subtype A DIS kissing-loop complex (23-mer RNA); assay: Lead(II)-induced cleavage of the DIS loop, 23-mer RNA (footprinting); type: binding, HIV-1; settings: for inhibition of lead-induced cleavage of the subtype A DIS loop: 25 μM aminoglycoside; for inhibition of lead-induced cleavage of the DIS loop, relative efficiency: FIG. 21
Description: (§1) Materials and Methods: Chemical footprinting experiments were performed on a 23-mer subtype A SL1 RNA or on RNA1-615, which corresponds to nucleotides 1-615 of HIV-1 Mal genomic RNA (Ennifar et al., J. Biol. Chem. 2003 278:2723-2730). Chemical modification was carried out either with dimethyl sulfate (DMS, Fluka) to test the accessibility of N1-A and N3-C positions or with lead acetate (Merck), which selectivity cleaves the subtype A DIS loop between the first and second nucleotides.
(§2) The binding of aminoglycosides to DIS can be detected through several biochemical methods: it induces protection toward chemical modification with dimethyl sulfate (DMS) or toward a specific cleavage in the subtype A promoted by lead (II); it also induces slower migration on non-denaturated gel.
At this stage, it was unclear if this class of compound is able to bind to the DIS kissing-loop complex. To compare binding of 4,5-disubstituted and 4,6-disubstituted DOS, a 23-mer RNA corresponding to the subtype A DIS, which was allowed to dimerize in conditions permitting crystallization of the kissing-loop complex, was used. As previously shown, lead (II) induced a specific cleavage in the subtype A DIS loop that is sensitive to the binding of aminoglycoside (FIG. 21).

[2] = tested on: DIS kissing-loop complex in RNA1-615 (HIV-1 MAL genomic RNA, subtype A DIS); assay: Lead-induced cleavage of RNA1-615, primer extension assay; type: binding
Description: as §1
To evaluate the capacity of 4,5-disubstituted DOS to bind to the DIS kissing-loop complex in a larger RNA presenting numerous unspecific binding sites, RNA1-615, which corresponds to nucleotides 1 to 615 of the HIV-1 MAL genomic RNA, was used.

[3] = tested on: subtype A DIS in RNA1-615 (HIV-1 MAL genomic RNA); assay: DMS footprinting of aminoglycosides on RNA1-615 (subtype A DIS); type: binding; settings: for protection of A280 against methylation by DMS: 10 μM and above; for protection of A280 against methylation by DMS / protection against methylation by DMS: RNA1-615; for protection against methylation by DMS: even at 100 μM
Description: as §1, §2
Residues A272 and A280 of RNA1-615 are unpaired in the kissing-loop complex and are methylated by DMS at their N1 position. As previously observed (Baudin et al., J. Mol. Biol. 1993, 229:382-397; Paillart et al., J. Mol. Biol. 1997, 270:36-49), A280 is more reactive than A272, even though the latter nucleotide is flipped out of the helix, while the former is stacked inside the structure. […] On the other hand, A272, which is flipped out of the kissing-loop complex was not protected against methylation by DMS (FIG. 22B). […] Thus, even though these compounds bound to short DIS RNA in the same way as neomycin and lividomycin (FIGS. 19A and 19B), they were unable to efficiently recognize this target in the context of a large RNA.

[4] = tested on: subtype F kissing-loop complex; assay: DMS footprinting, subtype F DIS in the context of RNA1-615; type: binding, HIV-1
[5] = tested on: DIS kissing-loop complex of RNA1-615 (HIV-1 MAL, subtype A DIS); assay: Competition experiment: exchange of RNA 1-615 homodimer with RNA 1-311 (heterodimer formation); type: biochemical; settings: for heterodimer formation after addition of RNA1-311: 100 μM aminoglycoside, fivefold excess RNA1-311, up to one hour; for heterodimer formation after addition of RNA1-311 / heterodimer formed compared with dimer 12: 37° C.; for heterodimer formed compared with dimer 12: FIG. 14; for exchange of preformed RNA homodimers (1-615/1-615) with RNA (1-311): FIG. 13
Description: Materials and Methods: In a typical experiment, unlabeled 1-615 RNA (400 nM), together with a corresponding internally labeled RNA (3-5 nCi), were heated for 2 min at 90° C., chilled for 2 min on ice, and dimerization was initiated by addition of 2 μl of 5-fold concentrated dimerization buffer (final concentration: 50 mM sodium cacodylate, pH 7.5, 300 mM KCl, 5 mM MgCl2). After incubation at 37° C. for 20 min, 100 μM of aminoglycosides were added to the RNA mixture and incubation was continue for 15 min. Then, RNA 1-311 was added as a competitor and sample were collected at 2, 5, 10, 15, 20, 30, and 60 min and analyzed on 0.8% agarose gels (45 mM Tris borate pH 8.3, 01 mM MgCl2) at 4° C. Gels were fixed in TCA 10%, dried, and analyzed using a BAS 2000 Bio-Imager (Fuji).
The kissing-loop complex of radiolabeled RNA1-615 was formed, and then aminoglycosides at a 100 AM concentration were added. Next, a fivefold excess of unlabeled RNA1-311, encompassing nucleotides 1 to 311 of HIV-1 MAL genomic RNA, that also contains the subtype A DIS and is thus able to form a heterodimer with RNA1-615, was added (FIG. 24). Due to the dynamic nature of the kissing-loop complex, in the absence of aminoglycoside, greater than half of the radioactive material was shifted in the heterodimer within two minutes, and the RNA1-615 homodimer almost completely disappeared upon prolonged incubation. […] This observation is in keeping with the crystal structures showing that 4,5-disubstituted DOS form a bridge between the two RNA molecules (FIG. 18).
The aminoglycosides have also been investigated in solution. Their ability to stabilize the loop-loop interaction was investigated through competition experiments. Preformed RNA homodimers (1-615/1-615) were placed in the presence of the same but shorter RNA (1-311), and the kinetic of their exchanges was followed in the presence, or not, of aminoglycosides (FIG. 13).

[6] = tested on: subtype A DIS of HIV-1 genomic RNA; assay: In situ DMS footprinting in infected CEMx174 cells and virions, subtype A DIS; settings: infected cells and viral particles; 3 mM aminoglycoside in culture
[7] = tested on: subtype F DIS of HIV-1 genomic RNA; assay: In situ DMS footprinting in infected CEMx174 cells and virions, subtype F DIS; settings: infected cells and viral particles; 3 mM aminoglycoside in culture
[8] = tested on: subtype B DIS of HIV-1 genomic RNA; assay: In situ DMS footprinting in infected CEMx174 cells and virions, subtype B DIS; settings: infected cells and viral particles; 3 mM aminoglycoside in culture
ribosomal A site = settings: Wong et al., Chem. Biol. 1998; cited from earlier work
[9] = tested on: subtype B kissing-loop complex; assay: DMS footprinting, subtype B DIS; type: binding, HIV-1; settings: NL4.3 sequence
Description: as §1
The dimeric molecules also protect from DMS modification as neomycin (FIG. 10).
In addition, none of the 4,5-disubstituted DOS was bound to the subtype B kissing-loop complex.

[10] = subtype A, loop adenine A280 and guanine G274

| SMILES | inhibition of lead-induced cleavage of the subtype A DIS loop [1] | inhibition of lead-induced cleavage between A272 and G273 ([2]; 50 μM) | protection of A280 against methylation by DMS [3] | binding to the subtype F kissing-loop complex by DMS footprinting [4] | heterodimer formation after addition of RNA1-311 [5] | heterodimer formed compared with dimer 12 [5] | exchange of preformed RNA homodimers (1-615/1-615) with RNA (1-311) [5] | reduction of alkylation (DMS) of A280 of the subtype A DIS [6] | reduction of alkylation (DMS) of A280 of the subtype F DIS [7] | protection of A280 against DMS methylation of subtype B DIS [8] | inhibition of lead-induced cleavage of the DIS loop, relative efficiency [1] | inhibition of lead-induced cleavage between A272 and G273 ([2]; even at 100 μM) | protection against methylation by DMS [3] | affinity for the ribosomal A site (ribosomal A site) | protection from DMS modification ([3]; Mal sequence) | protection from DMS modification [3, 10] | interaction seen by DMS modification [9] |
| --- | --- | --- | --- | --- | --- | --- | --- | --- | --- | --- | --- | --- | --- | --- | --- | --- | --- |
| NC[C@@H]1O[C@H](O[C@H]2[C@@H](O)[C@H](O[C@@H]3[C@@H](O)[C@H](N)C[C@H](N)[C@H]3O[C@H]3O[C@H](CO)[C@@H](O)C[C@H]3N)O[C@@H]2CO)[C@H](N)[C@@H](O)[C@@H]1O[C@H]1O[C@H](CO)[C@@H](O)[C@H](O)[C@@H]1O [lividomycin] | completely inhibited | almost completely inhibited | strongly protected A280 against methylation | efficiently bound | only minimal amounts of heterodimer were formed | twice less heterodimer | almost totally abolish the exchange | more than two-fold | more than two-fold | did not protect A280 |  |  |  |  |  |  |  |
| NC[C@H]1O[C@H](O[C@H]2[C@H](O)[C@@H](O)[C@H](N)C[C@@H]2N)[C@H](N)[C@@H](O)[C@@H]1O [neamine] |  |  |  | did not bind |  |  |  |  |  |  | less efficient; also recorded: inhibited cleavage at lower concentration than the tricyclic ribostamycin | no inhibition | no protection against methylation | higher affinity than ribostamycin |  |  |  |
| NCC1O[C@H](O[C@@H]2C(N)C[C@@H](N)C(O)[C@H]2O[C@@H]2O[C@H](CO)C(O[C@H]3O[C@H](CN)[C@@H](O)C(O)C3N)[C@@H]2O)C(N)[C@@H](O)[C@@H]1O (some centres unmarked) [neomycin] | completely inhibited | almost completely inhibited | strongly protected A280 against methylation | efficiently bound | only minimal amounts of heterodimer were formed | twice less heterodimer | almost totally abolish the exchange | more than two-fold | more than two-fold | did not protect A280 | equally inhibited |  |  |  | protect from DMS modification the bases implicated in the interaction | protects from DMS modification the loop adenine A280 and the guanine G274 | no significant interaction |
| NC[C@@H]1O[C@H](O[C@H]2[C@@H](O)[C@H](O[C@@H]3[C@@H](O)[C@H](N)C[C@H](N)[C@H]3O[C@H]3O[C@H](CO)[C@@H](O)[C@H](O)[C@H]3N)O[C@@H]2CO)[C@H](N)[C@@H](O)[C@@H]1O [paromomycin] |  |  |  |  | only minimal amounts of heterodimer were formed | twice less heterodimer | almost totally abolish the exchange | more than two-fold |  | did not protect A280 |  |  |  |  | protect from DMS modification the bases implicated in the interaction |  | no significant interaction |
| NC[C@H]1O[C@H](O[C@H]2[C@H](O[C@@H]3O[C@H](CO)[C@@H](O)[C@H]3O)[C@@H](O)[C@H](N)C[C@@H]2N)[C@H](N)[C@@H](O)[C@@H]1O [ribostamycin] |  |  |  | did not bind |  |  |  |  |  |  | less efficient | no inhibition | no protection against methylation |  |  |  |  |
| NC[C@H]1O[C@H](O[C@H]2[C@H](O)[C@@H](O[C@H]3O[C@H](CO)[C@@H](O)[C@H](N)[C@H]3O)[C@H](N)C[C@@H]2N)[C@H](N)C[C@@H]1O [tobramycin] |  |  |  |  |  |  |  |  |  |  |  |  |  |  |  | no protection |  |
